The source of these data is patent US20260028354A1, “TETRAHYDRONAPHTHALENE DERIVATIVES AS ESTROGEN RECEPTOR DEGRADERS” (REGENT OF THE UNIVERSITY OF MICHIGAN, priority 2022, published 2026).

The nature of this experiment: Western blot analysis for "B" compounds. The class given is cell-based. The following applies: read-out: Traditional Western Degradation Potency (DC50). How it is done:
Western Blot Analysis. Western blot analysis was performed essentially as described previously. The cells treated with indicated compounds were lysed in Radioimmunoprecipitation Assay Protein Lysis and Extraction Buffer (25 mmol/I. Tris.HCl, pH 7.6, 150 mmol/L, NaCl, 1% Nonidet P-40, 1% sodium deoxycholate, and 0.1% sodium dodecyl sulfate) containing proteinase inhibitor cocktail (Roche Diagnostics, Mannheim, Germany). Equal amounts of total protein were electrophoresed through 10% SDS-polyacrylamide gels after determination of protein concentration by BCA assay (Fisher Scientific, Pittsburgh, PA), The separated protein bands were transferred onto PVDF membranes (GE Healthcare Life Sciences, Marlborough, MA) and blotted against different antibodies, as indicated. The blots were scanned, and the band intensities were quantified using GelQuant.NET software provided by biochemlabsolutions.com. The relative mean intensity of target proteins was expressed after normalization to the intensity of glyceraldehyde-3-phosphate dehydrogenase bands.
(In western blotting, separated proteins are transferred to a membrane and probed.)
As for “2-(2,6-dioxopiperidin-3-yl)-6-(1-((1-(4-((1R,2S)-6-hydroxy-2- phenyl-1,2,3,4-tctrahydronaphthalcn-1-yl)phenyl)pipcridin-4- yl)methyl)piperidin-4-yl)-2,3,5,6-tetrahydropyrrolo[3,4- f]isoindole-1,7-dione [Compound B304]”, the DC50 was greater than 100 nM.

Regarding `O=C1CCC(N2C(=O)c3cc4c(cc3C2=O)CN([C@H]2CC[C@H](C(=O)N3CC(Oc5ccc([C@@H]6c7ccc(O)cc7CC[C@@H]6c6ccccc6)cc5)C3)CC2)C4)C(=O)N1` (stereo partly drawn) [Compound B122, 2-(2,6-dioxopiperidin-3-yl)-6-((1S,4r)-4-(3-(4-((1R,2S)-6-hydroxy-2-phenyl-1,2,3,4-tctrahydronaphthalcn-1-yl)phenoxy)azetidine-1-carbonyl)cyclohexyl)-6,7-dihydropyrrolo[3,4-f]isoindole-1,3(2H,5H)-dione], the half-maximal degradation concentration (DC50) lay within 10 to 100 nM.

As for `O=C1CCC(N2C(=O)c3cc4c(cc3C2=O)CN(C(=O)[C@H]2CC[C@H](CN3CC(Oc5ccc([C@@H]6c7ccc(O)cc7CC[C@@H]6c6ccccc6)cc5)C3)CC2)C4)C(=O)N1` (stereo partly drawn) [Compound B281, 2-(2,6-dioxopiperidin-3-yl)-6-((1R,4r)-4-((3-(4-((1R,2S)-6-hydroxy-2-phenyl-1,2,3,4-tetrahydronaphthalen-1-yl)phenoxy)azetidin-1-yl)methyl)cyclohexane-1-carbonyl)-6,7-dihydropyrrolo[3,4-f]isoindole-1,3(2H,5H)-dione], the DC50 was in the range of 10 to 100 nM.

Take `O=C1CCC(N2C(=O)c3cc4c(cc3C2=O)CN([C@H]2CC[C@@H](C(=O)N3CC(Nc5ccc([C@@H]6c7ccc(O)cc7CC[C@@H]6c6ccccc6)cc5)C3)CC2)C4)C(=O)N1` (stereo partly drawn) [Compound B125, 2-(2,6-dioxopiperidin-3-yl)-6-((1R,4s)-4-(3-((4-((1R,2S)-6-hydroxy-2-phenyl-1,2,3,4-tetrahydronaphthalen-1-yl)phenyl)amino)azetidine-1-carbonyl)cyclohexyl)-6,7-dihydropyrrolo[3,4-f]isoindole-1,3(2H,5H)-dione]: the DC50 was less than 10 nM.

On to `O=C1CCC(N2C(=O)c3cc4c(cc3C2=O)CN(Cc2ccc(N3CCN(c5ccc([C@@H]6c7ccc(O)cc7CC[C@@H]6c6ccccc6)cc5)CC3)nc2)C4)C(=O)N1` (stereo partly drawn) [Compound B282, 2-(2,6-dioxopiperidin-3-yl)-6-((6-(4-(4-((1R,2S)-6-hydroxy-2-phenyl-1,2,3,4-tetrahydronaphthalen-1-yl)phenyl)piperazin-1-yl)pyridin-3-yl)methyl)-6,7-dihydropyrrolo[3,4-f]isoindole-1,3(2H,5H)-dione], for which the DC50 is greater than 100 nM.

`O=C1CCC(N2Cc3cc4c(cc3C2=O)CN(C2CCN(CC3CCN(c5ccc([C@@H]6c7ccc(O)cc7CC[C@@H]6c6ccccc6)cc5)CC3)CC2)C4)C(=O)N1` (mixture of isomers) [Compound B3, 3-(6-(1-((1-(4-((1R,2S)-6-hydroxy-2-phenyl-1,2,3,4-tetrahydronaphthalen-1-yl)phenyl)piperidin-4-yl)methyl)piperidin-4-yl)-1-oxo-3,5,6,7-tetrahydropyrrolo[3,4-f]isoindol-2(1H)-yl)piperidine-2,6-dione]: the half-maximal degradation concentration (DC50) was less than 10 nM.

Take `O=C1CCC(N2C(=O)c3cc4c(cc3C2=O)CN(CC2CN(CC3CCN(c5ccc([C@@H]6c7ccc(O)cc7CC[C@@H]6c6ccccc6)cc5)CC3)C2)C4)C(=O)N1` (stereo partly drawn) [Compound B274, 2-(2,6-dioxopiperidin-3-yl)-6-((1-((1-(4-((1R,2S)-6-hydroxy-2-phenyl-1,2,3,4-tetrahydronaphthalen-1-yl)phenyl)piperidin-4-yl)methyl)azetidin-3-yl)methyl)-6,7-dihydropyrrolo[3,4-f]isoindole-1,3(2H,5H)-dione]: the DC50 is greater than 100 nM.

As for `O=C1CCC(N2C(=O)c3cc4c(cc3C2=O)CN(CC(=O)N2CCC3(CC2)CCN(C(=O)c2ccc([C@@H]5c6ccc(O)cc6CC[C@@H]5c5ccccc5)cc2)CC3)C4)C(=O)N1` (stereo partly drawn) [Compound B290, 2-(2,6-dioxopiperidin-3-yl)-6-(2-(9-(4-((1R,2S)-6-hydroxy-2-phenyl-1,2,3,4-tetrahydronaphthalen-1-yl)benzoyl)-3,9-diazaspiro[5.5]undecan-3-yl)-2-oxoethyl)-6,7-dihydropyrrolo[3,4-f]isoindole-1,3(2H,5H)-dione], the DC50 is greater than 100 nM.

`O=C1CCC(N2C(=O)c3cc4c(cc3C2=O)CN(C2CN(CC3CCN(c5ccc([C@@H]6c7ccc(O)cc7CC[C@@H]6c6ccccc6)cc5)CC3)C2)C4)C(=O)N1` (stereo partly drawn) [Compound B65, 2-(2,6-dioxopiperidin-3-yl)-6-(1-((1-(4-((1R,2S)-6-hydroxy-2-phenyl-1,2,3,4-tetrahydronaphthalen-1-yl)phenyl)piperidin-4-yl)methyl)azetidin-3-yl)-6,7-dihydropyrrolo[3,4-f]isoindole-1,3(2H,5H)-dione]: the half-maximal degradation concentration (DC50) was greater than 100 nM.

Take `O=C1CCC(N2C(=O)c3cc4c(cc3C2=O)CN(CC(=O)N2CCC(C(=O)N3CC(Oc5ccc([C@@H]6c7ccc(O)cc7CC[C@@H]6c6ccccc6)cc5)C3)CC2)C4)C(=O)N1` (stereo partly drawn) [Compound B120, 2-(2,6-dioxopiperidin-3-yl)-6-(2-(4-(3-(4-((1R,2S)-6-hydroxy-2-phenyl-1,2,3,4-tetrahydronaphthalen-1-yl)phenoxy)azetidine-1-carbonyl)piperidin-1-yl)-2-oxoethyl)-6,7-dihydropyrrolo[3,4-f]isoindole-1,3(2H,5H)-dione]: the DC50 is greater than 100 nM.

Regarding `O=C1CCC(N2C(=O)c3cc4c(cc3C2=O)CN(CC2CCN(c3ccc([C@@H]5c6ccc(O)cc6CC[C@@H]5c5ccccc5)cc3)CC2)C4)C(=O)N1` (mixture of isomers) [Compound B2, 2-(2,6-dioxopiperidin-3-yl)-6-((1-(4-((1R,2S)-6-hydroxy-2-phenyl-1,2,3,4-tetrahydronaphthalen-1-yl)phenyl)piperidin-4-yl)methyl)-6,7-dihydropyrrolo[3,4-f]isoindole-1,3(2H,5H)-dione], the 50% degradation concentration (DC50) is 10 to 100 nM.

For `O=C1CCC(N2C(=O)c3cc4c(cc3C2=O)CN(C(=O)CN2CC3(CCN(c5ccc([C@@H]6c7ccc(O)cc7CC[C@@H]6c6ccc(F)cc6)cc5)CC3)C2)C4)C(=O)N1` (mixture of isomers) [Compound B19, 2-(2,6-dioxopiperidin-3-yl)-6-(2-(7-(4-((1R,2S)-2-(4-fluorophenyl)-6-hydroxy-1,2,3,4-tetrahydronaphthalen-1-yl)phenyl)-2,7-diazaspiro[3.5]nonan-2-yl)acetyl)-6,7-dihydropyrrolo[3,4-f]isoindole-1,3(2H,5H)-dione], the half-maximal degradation concentration (DC50) lay in the range of 10 to 100 nM.

As for `O=C1CCC(N2C(=O)c3cc4c(cc3C2=O)CN(CC2(F)CN(C(=O)C3CCN(c5ccc([C@@H]6c7ccc(O)cc7CC[C@@H]6c6ccccc6)cc5)CC3)C2)C4)C(=O)N1` (stereo partly drawn) [Compound B268, 2-(2,6-dioxopiperidin-3-yl)-6-((3-fluoro-1-(1-(4-((1R,2S)-6-hydroxy-2-phenyl-1,2,3,4-tetrahydronaphthalen-1-yl)phenyl)piperidine-4-carbonyl)azetidin-3-yl)methyl)-6,7-dihydropyrrolo[3,4-f]isoindole-1,3(2H,5H)-dione], the DC50 is greater than 100 nM.

By DC50 is commonly meant the concentration at which degradation of the target reaches its halfway point.
